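Test compounds were applied to cells in 96-well plates for 48 hours at 5 doses. GI50: concentration for 50% inhibition of growth.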 Activity calls are given as the source filed them. No stated cut-off is given here; in the data, active = GI50 up to about 1.1 µM and inactive = higher. Non-standard residues stand in square brackets, D forms with d. Residues, ends and D or L forms follow the SMILES beside them. *: point of attachment. X30 = COC1=CC(=O)N(C(=O)[C@@H](O*)C(C)C)[C@H]1Cc1ccccc1; NMeL = CN[C@@H](CC(C)C)C(=O)O; Cbz = O=C(OCc1ccccc1)*
What was measured:
Experiment in all cases: growth of human tumour cells (NCI), 48 h
[1] = system: NCI/ADR-RES
[2] = system: SK-MEL-28
[3] = system: NCI-H460
[4] = system: SNB-19
[5] = system: HOP-62
[6] = system: K562
[7] = system: HT-29
[8] = system: OVCAR-3
[9] = system: CCRF-CEM
[10] = system: LOX IMVI
[11] = system: SF-295
[12] = system: U-251
[13] = system: 786-0
[14] = system: SK-MEL-2
[15] = system: RXF 393
[16] = system: DU-145
[17] = system: OVCAR-4
[18] = system: SF-268
[19] = system: HOP-92
[20] = system: MCF7

SMILES | GI50 [1] | GI50 [2] | GI50 [3] | GI50 [4] | GI50 [5] | GI50 [6] | GI50 [7] | GI50 [8] | GI50 [9] | GI50 [10] | GI50 [11] | GI50 [12] | GI50 [13] | GI50 [14] | GI50 [15] | GI50 [16] | GI50 [17] | GI50 [18] | GI50 [19] | GI50 [20]
CCOC(=O)Cc1csc(NC(NC(=O)OCC)(C(=O)OCC)C(F)(F)F)n1 (stereo not given) | > 100 µM (inactive) | > 100 µM (inactive) | > 100 µM (inactive) | > 100 µM (inactive) | > 100 µM (inactive) | > 100 µM (inactive) | > 100 µM (inactive) | > 100 µM (inactive) | > 100 µM (inactive) | > 100 µM (inactive) | > 100 µM (inactive) | > 100 µM (inactive) | > 100 µM (inactive) | > 100 µM (inactive) | > 100 µM (inactive) | > 100 µM (inactive) | > 100 µM (inactive) | > 100 µM (inactive) | 56.6 µM (inactive) | > 100 µM (inactive)
CC(=O)OCC1OC(n2c(-c3ccccc3)c(/N=N/c3ccc(C)cc3)c(C)c(C#N)c2=S)C(OC(C)=O)C(OC(C)=O)C1OC(C)=O (stereo not given) | 7.35 µM (inactive) | 26.4 µM (inactive) | 10.8 µM (inactive) | 15.3 µM (inactive) | 18.7 µM (inactive) | 5.69 µM (inactive) | 12.8 µM (inactive) | 19.7 µM (inactive) | 11 µM (inactive) | 6 µM (inactive) | 23.6 µM (inactive) | 14.9 µM (inactive) | 3.55 µM (inactive) | 20.7 µM (inactive) | 16.2 µM (inactive) | 18.1 µM (inactive) | 5.87 µM (inactive) | 9.04 µM (inactive) | 0.0257 µM (active) | 6.47 µM (inactive)
CC12NC(=C(C#N)C#N)C(C#N)=C3NC(N)=C(C#N)C(=C31)Oc1ccccc12 (stereo not given) | > 100 µM (inactive) | > 66.7 µM (inactive) | 31 µM (inactive) | > 40.7 µM (inactive) | 5.04 µM (inactive) | > 43.2 µM (inactive) | 7.06 µM (inactive) | 4.2 µM (inactive) | > 29 µM (inactive) | 5.83 µM (inactive) | 20 µM (inactive) | 18.1 µM (inactive) | 18.5 µM (inactive) | 6.7 µM (inactive) | 2.53 µM (inactive) | 10.1 µM (inactive) | 62.1 µM (inactive) | 10.4 µM (inactive) | > 21.5 µM (inactive) | > 35.6 µM (inactive)
CCOP(=O)(OCC)C(Cc1cn(S(=O)(=O)c2ccc(C)cc2)cn1)C(=O)O (stereo not given) | > 100 µM (inactive) | > 100 µM (inactive) | > 100 µM (inactive) | > 100 µM (inactive) | > 100 µM (inactive) | > 100 µM (inactive) | > 100 µM (inactive) | > 100 µM (inactive) | > 100 µM (inactive) | > 100 µM (inactive) | > 100 µM (inactive) | > 100 µM (inactive) | > 100 µM (inactive) | > 100 µM (inactive) | > 100 µM (inactive) | > 100 µM (inactive) | > 100 µM (inactive) | > 100 µM (inactive) | > 100 µM (inactive) | > 100 µM (inactive)
COC1=CC(=O)N(C(=O)[C@@H](OC(=O)[C@@H]2CCCN2C(=O)[C@@H]2CCCN2C(=O)[C@H](CC(C)C)N(C)C(=O)[C@@H](NC(=O)[C@@H](NC(=O)OCc2ccccc2)C(C)C)C(C)C)C(C)C)[C@H]1Cc1ccccc1 (Cbz-VV[NMeL]PP-X30) | > 100 µM (inactive) | > 100 µM (inactive) | 52.7 µM (inactive) | 28.6 µM (inactive) | 21.4 µM (inactive) | > 100 µM (inactive) | > 100 µM (inactive) | 47.1 µM (inactive) | 35.3 µM (inactive) | > 100 µM (inactive) | 20.3 µM (inactive) | 24.9 µM (inactive) | 23.3 µM (inactive) | 9.42 µM (inactive) | 14.2 µM (inactive) | > 100 µM (inactive) | > 100 µM (inactive) | > 100 µM (inactive) | 20.5 µM (inactive) | 56 µM (inactive)

Source: ChEMBL document CHEMBL1201862, “PubChem BioAssay data set” (2004)
